In US10717749B2, “Macrocyclic sulfondiimine compounds” (BAYER PHARMA AKTIENGESELLSCHAFT, priority 2015, dated 2020):

What was measured:
Caco-2 = assay: Proliferation assay, crystal violet; assay type: cell-based; conditions: Homo sapiens, 96 h; Caco-2, 4 days; read-out: Inhibition of Caco-2 cell proliferation IC50
Procedure: (§1) Cultivated tumour cells (HeLa, human cervical tumour cells, ATCC CCL-2; NCI—H460, human non-small cell lung carcinoma cells, ATCC HTB-177; DU 145, hormone-independent human prostate carcinoma cells, ATCC HTB-81; HeLa-MaTu-ADR, multidrug-resistant human cervical carcinoma cells, EPO-GmbH Berlin; Caco-2, human colorectal carcinoma cells, ATCC HTB-37; B16F10, mouse melanoma cells, ATCC CRL-6475) were plated at a density of 3,500 cells/well (DU145), 3,000 cells/well (HeLa-MaTu-ADR), 1,500 cells/well (NCI—H460), 3,000 cells/well (HeLa), 2,000 cells/well (Caco-2), or 1,000 cells/well (B16F10) in a 96-well multititer plate in 150 μL of their respective growth medium supplemented 10% fetal calf serum. After 24 hours, the cells of one plate (zero-point plate) were stained with crystal violet (see below), the test substances were added in various concentrations (0 μM, as well as in the range of 0.0001-10 μM) employing HP Dispenser. The cells were incubated for 4 days in the presence of test substances. Cell proliferation was determined by staining the cells with crystal violet: the cells were fixed by adding 20 μl/measuring point of an 11% glutaric aldehyde solution for 15 minutes at room temperature. After three washing cycles of the fixed cells with water, the plates were dried at room temperature. The cells were stained by adding 100 μl/measuring point of a 0.1% crystal violet solution DU 145, Caco-2, HeLa (pH 4.5) B16F10, NCI—H460, HeLa-MaTu-ADR. After three washing cycles of the stained cells with water, the plates were dried at room temperature. The dye was dissolved by adding 100 μl per measuring point of a 10% acetic acid solution. The extinction was determined by photometry at a wavelength of 595/550/620 nm depending on the intensity of coloration, usually at 595 nm. The change of cell number, in percent, was calculated by normalization of the measured values to the extinction values of the zero-point plate (=0%) and the extinction of the untreated (0 μM) cells (=100%). The IC50 values (inhibitory concentration at 50% of maximal effect) were determined by means of a 4 parameter fit.

DU145 = assay: Proliferation assay, crystal violet; assay type: cell-based; conditions: Homo sapiens, DU-145, 96 h; DU145, 4 days; read-out: Inhibition of DU145 cell proliferation IC50
Procedure: as §1

NCI-H460 = assay: Proliferation assay, crystal violet; assay type: cell-based; conditions: Homo sapiens, 96 h; NCI-H460, 4 days; read-out: Inhibition of NCI-H460 cell proliferation IC50
Procedure: as §1

B16F10 = assay: Proliferation assay, crystal violet; assay type: cell-based; conditions: Mus musculus, B16-F10, 96 h; B16F10, 4 days; read-out: Inhibition of B16F10 cell proliferation IC50
Procedure: as §1

HeLa = assay: Proliferation assay, crystal violet; assay type: cell-based; conditions: Homo sapiens, 96 h, 4 days, read-out: Inhibition of HeLa cell proliferation IC50
Procedure: as §1

CDK2/CycE = target: T1, CDK2/CycE (Homo sapiens, UniProt P24941); assay: CDK2/CycE high ATP kinase assay (Method 2b, TR-FRET, 2 mM ATP); assay type: biochemical
T1 construct: GST; purchased ProQinase GmbH (Freiburg, Germany); host or cells: insect cells (Sf9)
Procedure: 2b. CDK2/CycE High ATP Kinase Assay:
CDK2/CycE-inhibitory activity of compounds of the present invention at 2 mM adenosine-tri-phosphate (ATP) was quantified employing the CDK2/CycE TR-FRET (TR-FRET=Time Resolved Fluorescence Resonance Energy Transfer) assay as described in the following paragraphs.
Recombinant fusion proteins of GST and human CDK2 and of GST and human CycE, expressed in insect cells (Sf9) and purified by Glutathion-Sepharose affinity chromatography, were purchase from ProQinase GmbH (Freiburg, Germany). As substrate for the kinase reaction biotinylated peptide biotin-Ttds-YISPLKSPYKISEG (C-terminus in amid form) was used which can be purchased e.g. from the company JERINI peptide technologies (Berlin, Germany).
For the assay 50 nl of a 100 fold concentrated solution of the test compound in DMSO was pipetted into a black low volume 384 well microtiter plate (Greiner Bio-One, Frickenhausen, Germany), 2 μl of a solution of CDK2/CycE in aqueous assay buffer [50 mM Tris/HCl pH 8.0, 10 mM MgCl2, 1.0 mM dithiothreitol, 0.1 mM sodium ortho-vanadate, 0.01% (v/v) Nonidet-P40 (Sigma)] were added and the mixture was incubated for 15 min at 22° C. to allow pre-binding of the test compounds to the enzyme before the start of the kinase reaction. […] The concentration of CDK2/CycE was adjusted depending of the activity of the enzyme lot and was chosen appropriate to have the assay in the linear range, typical concentrations were in the range of 15 ng/ml. The reaction was stopped by the addition of 5 μl of a solution of TR-FRET detection reagents (0.2 μM streptavidine-XL665 [Cisbio Bioassays, Codolet, France] and 1 nM anti-RB(pSer807/pSer811)-antibody from BD Pharmingen [#558389] and 1.2 nM LANCE EU-W1024 labeled anti-mouse IgG antibody [Perkin-Elmer, product no. AD0077, as an alternative a Terbium-cryptate-labeled anti-mouse IgG antibody from Cisbio Bioassays can be used]) in an aqueous EDTA-solution (100 mM EDTA, 0.2% (w/v) bovine serum albumin in 100 mM HEPES pH 7.5).
The resulting mixture was incubated 1 h at 22° C. to allow the formation of complex between the phosphorylated biotinylated peptide and the detection reagents. Subsequently the amount of phosphorylated substrate was evaluated by measurement of the resonance energy transfer from the Eu-chelate to the streptavidine-XL. Therefore, the fluorescence emissions at 620 nm and 665 nm after excitation at 350 nm wer measured in a TR-FRET reader, e.g. a Rubystar (BMG Labtechnologies, Offenburg, Germany) or a Viewlux (Perkin-Elmer). The ratio of the emissions at 665 nm and at […] was taken as the measure for the amount of phosphorylated substrate. The data were normalised (enzyme reaction without inhibitor=0% inhibition, all other assay components but no enzyme=100% inhibition).

With `CS(=N)(Cc1cc2cc(c1)OCCCCOc1cc(F)ccc1-c1nc(ncc1F)N2)=NC1CC1` (racemic) [Example 9, (rac)-9-[(N-cyclopropyl-S-methylsulfonodiimidoyl)methyl]-16,20-difluoro-2,3,4,5-tetrahydro-12H-13,17-(azeno)-11,7-(metheno)-1,6,12,14-benzodioxadiazacyclononadecine] the IC50 (Caco-2) was 47.8 nM, the IC50 (DU145) was 118 nM and the IC50 (NCI-H460) was 56 nM. For the same compound, the IC50 (B16F10) was 92.2 nM, the IC50 (HeLa) was 31.6 nM and the IC50 (CDK2/CycE) was 997 nM.

In the case of `CS(=N)(Cc1cc2nc(c1)OCCCOc1cc(F)ccc1-c1cc(ncc1F)N2)=NC#N` (racemic) [Example 3, (rac)-[{[15,19-difluoro-3,4-dihydro-2H,11H-10,6-(azeno)-12,16-(metheno)-1,5,11,13-benzodioxadiazacyclooctadecin-8-yl]methyl}(imino)methyl-λ^6-sulfanylidene]cyanamide], the IC50 (CDK2/CycE) is reported as 62.4 nM.

`CS(=N)(=N)Cc1cc2cc(c1)OCCCCOc1c(F)cccc1-c1nc(ncc1F)N2` [Example 7, 16,21-difluoro-9-[(S-methylsulfonodiimidoyl)methyl]-2,3,4,5-tetrahydro-12H-13,17-(azeno)-11,7-(metheno)-1,6,12,14-benzodioxadiazacyclononadecine] was tested, and the IC50 (Caco-2) was 396 nM, the IC50 (DU145) was 396 nM and the IC50 (NCI-H460) was 448 nM. The IC50 (B16F10) was 784 nM and the IC50 (HeLa) was 332 nM.

In the case of `CS(=N)(=N)Cc1cc2nc(c1C#N)OCCCOc1cc(F)ccc1-c1cc(ncc1F)N2` [Example 8, 15,19-difluoro-8-[(S-methylsulfonodiimidoyl)methyl]-3,4-dihydro-2H,11H-10,6-(azeno)-12,16-(metheno)-1,5,11,13-benzodioxadiazacyclooctadecine-7-carbonitrile], the IC50 (Caco-2) is reported as 43.1 nM, the IC50 (DU145) is reported as 11.2 nM and the IC50 (B16F10) is reported as 50.7 nM. The IC50 (HeLa) was 5.5 nM and the IC50 (CDK2/CycE) was 378 nM.

For `CS(=N)(=N)Cc1cc2nc(c1)OCCCOc1cc(F)ccc1-c1cc(ncc1F)N2` [Example 1, 15,19-difluoro-8-[(S-methylsulfonodiimidoyl)methyl]-3,4-dihydro-2H,11H-10,6-(azeno)-12,16-(metheno)-1,5,11,13-benzodioxadiazacyclooctadecine], the IC50 (Caco-2) was 16.4 nM, the IC50 (DU145) was 9.1 nM and the IC50 (NCI-H460) was 10.4 nM. The IC50 (B16F10) was 14.3 nM, the IC50 (HeLa) was 2.8 nM and the IC50 (CDK2/CycE) was 140 nM.

Compound `CN=S(C)(=N)Cc1cc2cc(c1)OCCCCOc1cc(F)ccc1-c1nc(ncc1F)N2` (racemic) [Example 10, (rac)-9-[(N,S-dimethylsulfonodiimidoyl)methyl]-16,20-difluoro-2,3,4,5-tetrahydro-12H-13,17-(azeno)-11,7-(metheno)-1,6,12,14-benzodioxadiazacyclononadecine] has an IC50 (CDK2/CycE) of 1650 nM.

`CN=S(C)(=N)Cc1cc2nc(c1)OCCCOc1cc(F)ccc1-c1cc(ncc1F)N2` (racemic) [Example 4, (rac)-8-[(N,S-dimethylsulfonodiimidoyl)methyl]-15,19-difluoro-3,4-dihydro-2H,11H-10,6-(azeno)-12,16-(metheno)-1,5,11,13-benzodioxadiazacyclooctadecine] gave an IC50 (CDK2/CycE) of 620 nM.

Work on `CS(=N)(=N)Cc1cc2cc(c1)OCCCCOc1c(ccc(F)c1F)-c1nc(ncc1F)N2` [Example 6, 16,20,21-trifluoro-9-[(S-methylsulfonodiimidoyl)methyl]-2,3,4,5-tetrahydro-12H-13,17-(azeno)-11,7-(metheno)-1,6,12,14-benzodioxadiazacyclononadecine] yielded an IC50 (Caco-2) of 325 nM, an IC50 (DU145) of 360 nM and an IC50 (NCI-H460) of 369 nM. It also gave an IC50 (B16F10) of 683 nM, an IC50 (HeLa) of 313 nM and an IC50 (CDK2/CycE) of 12500 nM.

`CS(=N)(Cc1cc2nc(c1)OCCCOc1cc(F)ccc1-c1cc(ncc1F)N2)=NCCCO` (racemic) [Example 2, (rac)-3-(2-{[15,19-difluoro-3,4-dihydro-2H,11H-10,6-(azeno)-12,16-(metheno)-1,5,11,13-benzodioxadiazacyclooctadecin-8-yl]methyl}-2-methyl-2λ^6-diazathia-1,2-dien-1-yl)propan-1-ol] gave an IC50 (Caco-2) of 28.7 nM, an IC50 (DU145) of 29.5 nM and an IC50 (NCI-H460) of 89.8 nM. For the same compound, the IC50 (B16F10) was 37.4 nM, the IC50 (HeLa) was 10.2 nM and the IC50 (CDK2/CycE) was 246 nM.

In the case of `CS(=N)(=N)Cc1cc2cc(c1)OCCCCOc1cc(F)ccc1-c1nc(ncc1F)N2` [Example 5, 16,20-difluoro-9-[(S-methylsulfonodiimidoyl)methyl]-2,3,4,5-tetrahydro-12H-13,17-(azeno)-11,7-(metheno)-1,6,12,14-benzodioxadiazacyclononadecine], the IC50 (Caco-2) is reported as 35.2 nM, the IC50 (DU145) is reported as 36.2 nM and the IC50 (NCI-H460) is reported as 38.3 nM. The IC50 (B16F10) was 50.6 nM, the IC50 (HeLa) was 25.8 nM and the IC50 (CDK2/CycE) was 1240 nM.
